Series [1] relates to HBeAg (surrogate marker for cccDNA) in HepDES19 cells. Put plainly: Engineered HepDES19 primary screen assay (HBeAg ELISA). The series is classed as cell-based, HBV. Put shortly:
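IC50 values come from 4-parameter logistic fits of HBeAg ELISA signal, the cccDNA surrogate, with CCK-8 run in parallel for viability. Compounds at half-log dilutions with 1% DMSO were applied for 5 days at 37 °C to HepDES19 cells previously cultured 8 days without Tet.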
In general terms: ELISA stands for enzyme-linked immunosorbent assay.

A short description of series [2]: Human microsome stability assay. The series is classed as in vitro ADME. To be noted: human liver microsomes, 1 μM test compound, 0.5 mg/mL microsomal protein, 37° C., pH 7.4, 0-30 minutes. As for the experimental part: The human microsomal stability assay is used for early assessment of metabolic stability of a test compound in human liver microsomes.
Human liver microsomes (Cat. NO.: 452117, Corning, USA; Cat. NO.: H2610, Xenotech, USA) were preincubated with test compound for 10 minutes at 37° C. in 100 mM potassium phosphate buffer, pH 7.4. The reactions were initiated by adding NADPH regenerating system. The final incubation mixtures contained 1 μM test compound, 0.5 mg/mL liver microsomal protein, 1 mM MgCl2, 1 mM NADP, 1 unit/mL isocitric dehydrogenase and 6 mM isocitric acid in 100 mM potassium phosphate buffer, pH 7.4. After incubation times of 0, 3, 6, 9, 15 and 30 minutes at 37° C., 300 μL of cold ACN (including internal standard) was added to 100 μL incubation mixture to terminate the reaction. Following precipitation and centrifugation, the amount of compound remaining in the samples was determined by LC-MS/MS. Controls of no NADPH regenerating system at zero and 30 minutes were also prepared and analyzed.
On the technique in general: Microsomes from liver hold many membrane-bound enzymes, among them those of drug oxidation.

[3] abbreviates: Hepatitis B virus, HepDES19, 120 h, read-out: IC50 (HBeAg level, HepDES19 primary screen assay), HepDES19 cells, 5 days compound incubation, HBeAg ELISA.

Read-outs that look alike come from different tables or passages of the source.

A word on the IC50: it is the concentration that gives 50% inhibition. With `O=C(O)CCOc1cc(OC(F)(F)F)ccc1-c1cc(=O)c2ccc(C(F)(F)F)c(Cl)c2o1` [Example A042, 3-[2-[8-chloro-4-oxo-7-(trifluoromethyl)chromen-2-yl]-5-(trifluoromethoxy)phenoxy]propanoic acid], the IC50 in series [1] (setting [3]) was determined as 17.8 µM. Besides, in series [2], the “Clearance of Human microsome” value was determined as 6.15 mL/min/kg.

`O=C(O)CCOc1cc(C(F)(F)F)ccc1-c1oc2c(Cl)cccc2c(=O)c1O` [Example A046, 3-[2-(8-chloro-3-hydroxy-4-oxo-chromen-2-yl)-5-(trifluoromethyl)phenoxy]propanoic acid]: in series [1] (setting [3]), the IC50 worked out at 7.86 µM. Also, the “Clearance of Human microsome” value in series [2] worked out at 6.15 mL/min/kg.

`COc1c(-c2ccc(C(F)(F)F)cc2OCCC(=O)O)oc2c(Cl)cccc2c1=O` [Example A047, 3-[2-(8-chloro-3-methoxy-4-oxo-chromen-2-yl)-5-(trifluoromethyl)phenoxy]propanoic acid]: the IC50 in series [1] (setting [3]) amounted to 1.83 µM. Further, in series [2], the “Clearance of Human microsome” value was found to be 6.15 mL/min/kg.

`COc1cc(OCC(=O)O)c(-c2cc(=O)c3cccc(Cl)c3o2)cc1OC` [Example A050, 2-[2-(8-chloro-4-oxo-chromen-2-yl)-4,5-dimethoxy-phenoxy]acetic acid]: the IC50 in series [1] (setting [3]) amounted to 11.8 µM. Moreover, in series [2], the “Clearance of Human microsome” value is recorded as 6.15 mL/min/kg.

Consider `O=C(O)COc1cc(C(F)(F)F)ccc1-c1cc(=O)c2cccc(Cl)c2o1` [Example A051, 2-[2-(8-chloro-4-oxo-chromen-2-yl)-5-(trifluoromethyl)phenoxy]acetic acid], for which, in series [1] (setting [3]), the IC50 was 2.41 µM. Also, the “Clearance of Human microsome” value in series [2] is given as 6.15 mL/min/kg.

Consider `COc1cc(-c2cc(=O)c3cccc(Cl)c3o2)c(OCCCC(=O)O)cc1Br` [Example A058, 4-[5-bromo-2-(8-chloro-4-oxo-chromen-2-yl)-4-methoxy-phenoxy]butanoic acid], for which the IC50 in series [1] (setting [3]) came out at 0.549 µM. For the same compound, the “Clearance of Human microsome” value in series [2] is 6.15 mL/min/kg.

On to `Cc1ccc(-c2cc(=O)c3cccc(Cl)c3o2)c(OCCCC(=O)O)c1` [Example A059, 4-[2-(8-chloro-4-oxo-chromen-2-yl)-5-methyl-phenoxy]butanoic acid], for which, in series [1] (setting [3]), the IC50 is 0.622 µM. Further, the “Clearance of Human microsome” value in series [2] came to 8.34 mL/min/kg.

`COc1cc(OCCCC(=O)O)c(-c2cc(=O)c3cccc(Cl)c3o2)cc1C` [Example A060, 4-[2-(8-chloro-4-oxo-chromen-2-yl)-5-methoxy-4-methyl-phenoxy]butanoic acid]: in series [1] (setting [3]), the IC50 was 5.36 µM. Moreover, the “Clearance of Human microsome” value in series [2] amounted to 6.15 mL/min/kg.

Turning to `CC(C)(COc1cc(OC(F)(F)F)ccc1-c1cc(=O)c2cccc(Cl)c2o1)C(=O)O` [Example A061, 3-[2-(8-chloro-4-oxo-chromen-2-yl)-5-(trifluoromethoxy)phenoxy]-2,2-dimethyl-propanoic acid], in series [1] (setting [3]), the IC50 was found to be 15.9 µM. In series [2], the “Clearance of Human microsome” value came to 8.78 mL/min/kg.

For the compound `CC(C)(COc1cc(C(F)(F)F)ccc1-c1cc(=O)c2cccc(Cl)c2o1)C(=O)O` [Example A062, 3-[2-(8-chloro-4-oxo-chromen-2-yl)-5-(trifluoromethyl)phenoxy]-2,2-dimethyl-propanoic acid], the IC50 in series [1] (setting [3]) worked out at 13 µM. For the same compound, in series [2], the “Clearance of Human microsome” value is 9.88 mL/min/kg.

On to `Cc1ccc(-c2cc(=O)c3cccc(Cl)c3o2)c(OCC(C)(C)C(=O)O)c1` [Example A063, 3-[2-(8-chloro-4-oxo-chromen-2-yl)-5-methyl-phenoxy]-2,2-dimethyl-propanoic acid], for which the IC50 in series [1] (setting [3]) was determined as 1.35 µM. Besides, the “Clearance of Human microsome” value in series [2] is 6.15 mL/min/kg.

As to `Cc1cc(-c2cc(=O)c3cccc(Cl)c3o2)c(OCC(C)(C)C(=O)O)cc1Cl` [Example A064, 3-[5-chloro-2-(8-chloro-4-oxo-chromen-2-yl)-4-methyl-phenoxy]-2,2-dimethyl-propanoic acid], the IC50 in series [1] (setting [3]) is 9.59 µM. The “Clearance of Human microsome” value in series [2] is reported as 9.5 mL/min/kg.

For the compound `O=C(O)CCCCOc1cc(C(F)(F)F)ccc1-c1cc(=O)c2cccc(Cl)c2o1` [Example A065, 5-[2-(8-chloro-4-oxo-chromen-2-yl)-5-(trifluoromethyl)phenoxy]pentanoic acid], the IC50 in series [1] (setting [3]) is 1.9 µM. For the same compound, the “Clearance of Human microsome” value in series [2] is recorded as 6.15 mL/min/kg.

For the compound `COc1cc(OCC2(CC(=O)O)CC2)c(-c2cc(=O)c3cccc(Cl)c3o2)cc1OC` [Example A067, 2-[1-[[2-(8-chloro-4-oxo-chromen-2-yl)-4,5-dimethoxy-phenoxy]methyl]cyclopropyl]acetic acid], in series [1] (setting [3]), the IC50 was 1.68 µM. Moreover, the “Clearance of Human microsome” value in series [2] is 6.15 mL/min/kg.

As for `O=C(O)CC1(COc2cc(Br)ccc2-c2cc(=O)c3cccc(Cl)c3o2)CC1` [Example A069, 2-[1-[[5-bromo-2-(8-chloro-4-oxo-chromen-2-yl)phenoxy]methyl]cyclopropyl]acetic acid], the IC50 in series [1] (setting [3]) was determined as 2.73 µM. In addition, the “Clearance of Human microsome” value in series [2] is 6.15 mL/min/kg.

Take `CC(C)(Oc1cc(Br)ccc1-c1cc(=O)c2cccc(Cl)c2o1)C(=O)O` [Example A070, 2-[5-bromo-2-(8-chloro-4-oxo-chromen-2-yl)phenoxy]-2-methyl-propanoic acid]: the IC50 in series [1] (setting [3]) is 0.63 µM. Further, in series [2], the “Clearance of Human microsome” value came to 6.15 mL/min/kg.

As for `CC(C)(CCCOc1cc(OC(F)(F)F)ccc1-c1cc(=O)c2cccc(Cl)c2o1)C(=O)O` [Example A071, 5-[2-(8-chloro-4-oxo-chromen-2-yl)-5-(trifluoromethoxy)phenoxy]-2,2-dimethyl-pentanoic acid], the IC50 in series [1] (setting [3]) was 6.46 µM. Further, the “Clearance of Human microsome” value in series [2] was determined as 7.4 mL/min/kg.

With `O=C(COc1cc(C(F)(F)F)ccc1-c1cc(=O)c2cccc(Cl)c2o1)NC1CC(C(=O)O)C1` (stereo not shown) [Example A074, 3-[[2-[2-(8-chloro-4-oxo-chromen-2-yl)-5-(trifluoromethyl)phenoxy]acetyl]amino]cyclobutanecarboxylic acid], the IC50 in series [1] (setting [3]) was 2.38 µM. Moreover, the “Clearance of Human microsome” value in series [2] is 6.15 mL/min/kg.

For the compound `O=C(O)[C@H]1CCCN1C(=O)CCOc1cc(Br)ccc1-c1cc(=O)c2cccc(Cl)c2o1` [Example A075, (2R)-1-[3-[5-bromo-2-(8-chloro-4-oxo-chromen-2-yl)phenoxy]propanoyl]pyrrolidine-2-carboxylic acid], the IC50 in series [1] (setting [3]) was 2.85 µM. Further, in series [2], the “Clearance of Human microsome” value is 6.15 mL/min/kg.

As for `O=C(O)[C@@H]1CCCN1C(=O)CCOc1cc(Br)ccc1-c1cc(=O)c2cccc(Cl)c2o1` [Example A076, (2S)-1-[3-[5-bromo-2-(8-chloro-4-oxo-chromen-2-yl)phenoxy]propanoyl]pyrrolidine-2-carboxylic acid], the IC50 in series [1] (setting [3]) was 14.1 µM. Further, in series [2], the “Clearance of Human microsome” value was determined as 6.15 mL/min/kg.

Turning to `Cc1ccc(-c2cc(=O)c3cccc(Cl)c3o2)c(OCC(=O)N2CCC[C@@H]2C(=O)O)c1` [Example A077, (2R)-1-[2-[2-(8-chloro-4-oxo-chromen-2-yl)-5-methyl-phenoxy]acetyl]pyrrolidine-2-carboxylic acid], the IC50 in series [1] (setting [3]) is 9 µM. Also, in series [2], the “Clearance of Human microsome” value is 8.57 mL/min/kg.

Consider `Cc1ccc(-c2cc(=O)c3cccc(Cl)c3o2)c(OCC(=O)N2CCC[C@H]2C(=O)O)c1` [Example A078, (2S)-1-[2-[2-(8-chloro-4-oxo-chromen-2-yl)-5-methyl-phenoxy]acetyl]pyrrolidine-2-carboxylic acid], for which the IC50 in series [1] (setting [3]) is 10.2 µM. The “Clearance of Human microsome” value in series [2] is recorded as 6.15 mL/min/kg.

Take `Cc1cc(-c2cc(=O)c3cccc(Cl)c3o2)c(OCC(=O)N2CCC[C@@H]2C(=O)O)cc1Br` [Example A079, (2R)-1-[2-[5-bromo-2-(8-chloro-4-oxo-chromen-2-yl)-4-methyl-phenoxy]acetyl]pyrrolidine-2-carboxylic acid]: the 50% inhibitory concentration (IC50) in series [1] (setting [3]) is 19 µM. Besides, in series [2], the “Clearance of Human microsome” value turned out to be 6.6 mL/min/kg.

Turning to `Cc1cc(-c2cc(=O)c3cccc(Cl)c3o2)c(OCC(=O)N2CCC[C@H]2C(=O)O)cc1Br` [Example A080, (2S)-1-[2-[5-bromo-2-(8-chloro-4-oxo-chromen-2-yl)-4-methyl-phenoxy]acetyl]pyrrolidine-2-carboxylic acid], in series [1] (setting [3]), the IC50 amounted to 17.5 µM. The “Clearance of Human microsome” value in series [2] is on record as 6.15 mL/min/kg.

As for `O=C(O)[C@H]1CCCN1C(=O)COc1cc(C(F)(F)F)ccc1-c1cc(=O)c2cccc(Cl)c2o1` [Example A081, (2R)-1-[2-[2-(8-chloro-4-oxo-chromen-2-yl)-5-(trifluoromethyl)phenoxy]acetyl]pyrrolidine-2-carboxylic acid], the IC50 in series [1] (read-out: IC50 (HBeAg level, HepDES19 primary screen assay), HepDES19 cells, 5 days compound incubation, HBeAg ELISA) is 0.26 µM. In series [2], the “Clearance of Human microsome” value amounted to 6.15 mL/min/kg.

`COc1cc(OCCC(=O)NS(=O)(=O)C2CC2)c(-c2cc(=O)c3cccc(Cl)c3o2)cc1OC` [Example A085, 3-[2-(8-chloro-4-oxo-chromen-2-yl)-4,5-dimethoxy-phenoxy]-N-cyclopropylsulfonyl-propanamide]: the IC50 in series [1] (setting [3]) was found to be 4.92 µM. Moreover, the “Clearance of Human microsome” value in series [2] is recorded as 6.15 mL/min/kg.

Values taken from patent publication US11708344B2, “Flavone derivatives for the treatment and prophylaxis of hepatitis B virus disease” (Hoffmann-La Roche Inc., priority 2018, dated 2023).
